Assay results: patent publication US7869664B2, “Systems and methods for alignment of objects in images” (priority 2007, dated 2011)
Like-named read-outs stand apart in the source and are kept apart here.

Key:
[1] = system: hepatic acetaminophen-protein adducts; settings: resistant SJL strain compared with sensitive C57B6 strain; previously shown; cited from earlier work
hepatic glutathione = experiment: Endogenous liver metabolite profiling by 1H-13C two-dimensional NMR after acetaminophen exposure; type: in vivo, mouse; settings: three hours after acetaminophen administration
Experimental: Analysis of acetaminophen-induced endogenous metabolite and gene expression changes. Endogenous metabolites and gene expression changes in liver were examined at 0, 3 and 6 hours after acetaminophen exposure in the resistant (SJL) and three sensitive strains (DBA, SMJ and C57) strains in order to identify the pathways and genes contributing to resistance to acetaminophen-induced liver toxicity. The endogenous metabolites were profiled using ^1H—^13C two-dimensional-NMR analysis. Over 400 metabolite peaks were quantified and analyzed by this method, and principal component analysis (PCA) (Duda, 2001, Pattern Classification, John Wiley & Sons, Inc., pp. 568-569, which is hereby incorporated by reference herein) was used to identify metabolite peaks that distinguished the response of the sensitive strain from the three resistant strains. […]
Therefore, the metabolites within the peaks that distinguished the response of the resistant strain from the three sensitive strains at zero and three hours after drug exposure were identified. […] Using resonance assignments and confirmation experiments with purified compounds, the identity of eight of these nine peaks was determined. […]
NMR spectra were recorded at 300°K on a Bruker Avance 600 MHz spectrometer operating at ^1H frequency of 599.99 MHz and ^13C frequency of 150.87 MHz using a 3 mm Nalorac microprobe with z-axis pulsed-field gradient. […]

[2] = system: Ddit3, Dnajb1, and Gadd45ga; experiment: Hepatic gene expression profiles (microarrays) after acetaminophen treatment; type: in vivo, mouse; settings: liver; SJL and three sensitive strains
Description: Differential susceptibility to a hepatotoxic dose of acetaminophen could result from differences in the rate of production of the reactive quinone metabolite that causes liver toxicity. […] Thus, a hepatotoxic dose of acetaminophen induces the formation of protein adducts and activates the DNA damage response in resistant SJL mice to the same extent as in the susceptible strains.
Therefore, the metabolites within the peaks that distinguished the response of the resistant strain from the three sensitive strains at zero and three hours after drug exposure were identified. […] Using resonance assignments and confirmation experiments with purified compounds, the identity of eight of these nine peaks was determined. Three peaks were assigned to glutathione. […] Five other metabolite peaks were assigned to alanine, lactate and betaine. Microarrays were simultaneously used to analyze gene expression in liver obtained from these four strains before (zero hr) and three hours after acetaminophen administration. […] This large number of differentially expressed genes limited the utility of analyzing the gene expression data by itself. However, an integrated analysis of the gene expression and metabolite data provided a more restricted set of pathways and genes to consider. […]

inbred mouse strains = system: inbred mouse strains
Experimental: For the genetic analysis, the susceptibility of a panel of 16 inbred mouse strains to developing liver toxicity after a single 300 mg/kg intraperitoneal dose of acetaminophen was assessed. This dose is known to cause liver toxicity in mice. During the 24 hour period after dosing, serum alanine aminotransferase (ALT), morbidity and liver histochemistry were assessed as indices of liver toxicity.
Animal husbandry and drug treatment. Seven to eight week old male mice were obtained from Jackson Laboratory (Bar Harbor, Me.) and acclimatized for an additional week before use. The following 16 inbred mouse strains were studied: SJL, LGJ, BALB/cJ, DBA/2J, A/J, AKR/J, A/HeJ, 129/SvJ, B10.D2-H2/oSNJ, C57BL/6J, NZW/LaCJ, NZB/BInJ, MRL/MpJ, C3H/HeJ, LP/J, SM/J. The mice were housed under pathogen-free environment and provided food and water ad libitum with a 12h: 12h light: dark cycle until experimental use. Before each experiment, food was withheld from the animals overnight (greater than sixteen hours) to uniformly deplete hepatic glutathione stores. All mice were administered a single 300 mg/kg intraperitoneal dose of freshly prepared acetaminophen (Voigt Global Distribution Inc.) suspended in PBS (pH 7.4), and were allowed free access to food and water after treatment. The mice were euthanized by CO2 inhalation to collect blood samples and liver tissues at zero, three, and six hours after dosing. The remaining mice were monitored for 48 hours for the occurrence of acetaminophen-induced deaths. Blood samples were withdrawn by cardiac puncture and placed in EDTA-coated tubes, and plasma samples were isolated by centrifugation. Alanine aminotransferase (ALT) activity was measured at the Marshfield Clinic Laboratories (Marshfield, Wis.). Liver tissues were removed immediately and cut into two sections. The smaller section was fixed in buffered formalin, processed by standard histological techniques, stained with hematoxylin and eosin, and examined for histopathologic evidence of liver injury. The remaining sections were snap-frozen in liquid nitrogen and stored at −80° C. for gene expression and metabolite analysis.

CC(=O)Nc1ccc(O)cc1 [acetaminophen]
hepatic acetaminophen-protein adducts generated [1]: same amount of hepatic acetaminophen-protein adducts
hepatic glutathione concentration (hepatic glutathione; SJL strain): maintained its hepatic glutathione concentration
hepatic glutathione levels (hepatic glutathione; three sensitive strains): significantly decreased
level of expression of three DNA damage response genes (Ddit3, Dnajb1, Gadd45ga) [2]: increased to the same extent in all four strains
mortality (inbred mouse strains; 15 sensitive strains, single 300 mg/kg intraperitoneal dose): mortality in a significant percent of the mice
mortality (inbred mouse strains; C57B6 mice, within six hours after dosing): 100%
time at which mortality occurred after dosing (inbred mouse strains; DBA/2 strain): 48 h
mortality (inbred mouse strains; SJL mice, single 300 mg/kg intraperitoneal dose): no mortality
survival (inbred mouse strains; SJL mice, within forty-eight hours after treatment): all SJL mice survived
time at which mortality occurred after dosing (inbred mouse strains; SMJ strain): 24 h
increase in serum ALT (inbred mouse strains; mouse, in vivo, ip, 300 mg/kg): much smaller and transient increase
mortality (inbred mouse strains; three sensitive strains (C57BL6, DBA/2, SMJ), within forty-eight hours after treatment): at least 60%
